According to PMC9243654 (Frontiers in Nutrition, 2022):
Where two headings read alike, the source gives them in different places.

Tests used:
in vitro = assay: in vitro
Protocol: The PAMPA-BBB assay was conducted according to the methodology followed by Di et al., with some modifications as described below ([15]). First, the BBB solution was prepared by dissolving 8 mg of PBL and 4 mg of cholesterol in 600 μl of n-dodecane. The initial donor solution was prepared by mixing 1 ml of extract (10 mg ml^−1 in EtOH) with 1 ml of buffer (PBS, pH = 7.4, 10 mM). The filter membrane of the donor plate was carefully coated with 5 μl of BBB solution. The acceptor plate was filled with 350 μl of buffer, and the donor plate was carefully assembled over the acceptor plate like a “sandwich.” Finally, the donor plate was filled with 350 μl of donor solution, covered, and incubated for 4 h at 37°C in the dark. After incubation time, 300 μl of the solution was taken from both plates, transferred to separate vials, and dried in the SpeedVac system at 40°C and 13 mbar pressure. Dried acceptor and donor solution were dissolved in 50 μl of pure EtOH before subjecting to UHPLC-Q-TOF-MS analysis. Permeability across in vitro BBB of the bioactive compound was measured according to Equation (1) ([25]), with some modifications in concentration rates.
(1) Pe=-ln[1-CA(t)/Ce]/A^*(1/VD+1/VA)^*t
Cequilibrium was calculated according to the following equation ([2]):
(2) Cequilibrium=[CD(t)*VD+CA(t)*VA]/(VD+VA)

[1] = cited from earlier work
[2] = ref PubChem database, cited from earlier work
[3] = PAMPA, pH 7.4, PAMPA-BBB log Pe (cm s−1)
[4] = compounds from Ginkgo biloba L. extract, ref Könczöl et al. ([69])
[5] = compounds of RSFE extract, octanol-water partition coefficient
[6] = PAMPA, pH 7.4, PAMPA-BBB log Pe (cm s−1), compound within ASFE extract, 4 h, 37°C, PBS pH 7.4
[7] = PAMPA, pH 7.4, PAMPA-BBB log Pe (cm s−1), compound within KD extract, 4 h, 37°C, PBS pH 7.4
[8] = PAMPA, pH 7.4, PAMPA-BBB log Pe, compound within LPLE (Nothofagus pumilio, lenga PLE extract), N.D = not detected in acceptor
[9] = compounds identified in LPLE extract
[10] = PAMPA, pH 7.4, PAMPA-BBB log Pe (cm s−1), compound within RSFE extract, 4 h, 37°C, PBS pH 7.4
[11] = compound within LPLE (Nothofagus pumilio, lenga PLE extract), classes based on Könczöl et al.
[12] = compound within RSFE extract, 4 h, 37°C, PBS pH 7.4

O=c1cc(-c2ccc(O)cc2)oc2cc(O)cc(O)c12 [Apigenin]
Papp (in vitro; [3]): 26.3 ×10⁻⁶ cm/s | Cross BBB potential (in vitro; compound within RSFE extract): ++ (log Pe > −5.5) | PAMPA-BBB logPe [1, 4]: −5.35

COc1cc(-c2oc3cc(O)cc(O)c3c(=O)c2O)ccc1O [Isorhamnetin]
Cross BBB potential (in vitro; PAMPA): +++ (key: -: not detected in acceptor; +: log Pe > −6.5; ++: log Pe > −5.5; +++: log Pe > −4.5) | Papp (in vitro; [3]): 49 ×10⁻⁶ cm/s | PAMPA-BBB logPe [1, 4]: −5.46 | Log P [2, 5]: 1.9

O=c1c(O)c(-c2ccc(O)cc2)oc2cc(O)cc(O)c12 [Kaempferol]
Papp at 4 h (in vitro; [6]): 2.29 ×10⁻⁶ cm/s | Papp at 4 h (in vitro; [7]): 14.8 ×10⁻⁶ cm/s | Papp at 4 h (in vitro; [8]): 21.4 ×10⁻⁶ cm/s | PAMPA-BBB logPe ([1]; PAMPA): −5.13 | Log P [2, 9]: 1.9 | Log P ([2]; compounds of ASFE extract): 1.9 | Log P ([2]; compounds of KD extract): 1.9

O=C(O)[C@]1(O)C[C@@H](O)[C@@H](O)[C@H](O)C1 [Quinic acid]
Cross BBB potential (in vitro; PAMPA): - | Papp at 4 h (in vitro; [10]): 6.03 ×10⁻⁶ cm/s | Papp at 4 h (in vitro; PAMPA, pH 7.4, PAMPA-BBB log Pe (cm s−1), compound within T33 extract, 4 h, 37°C, PBS pH 7.4): 3.63 ×10⁻⁶ cm/s | Log P ([2]; compounds of T33 extract): −2.4

CC(C)c1cc2c(c(O)c1O)[C@@]13CCCC(C)(C)[C@@H]1[C@H](OC3=O)[C@H]2O [Rosmanol]
Papp at 4 h (in vitro; [10]): 145 ×10⁻⁶ cm/s | Cross BBB potential (in vitro; compound within RSFE extract): +++ (log Pe > −4.5) | Log P [2, 5]: 3.4

CC(C)c1cc2c(c(O)c1O)C(=O)C1CCCC(C)(C)C1CC2 (centres unmarked) [Rosmaridiphenol]
Cross BBB potential (in vitro; PAMPA): + | PAMPA-BBB log Pe (cm s−1) (in vitro; PAMPA, 4 h, pH 7.4): −5.55 cm s−1 | Log P [2, 5]: 5.9

CC(C)C1=Cc2ccc3c(c2C(=O)C1=O)CCCC3(C)C [Rosmariquinone]
Cross BBB potential (in vitro; PAMPA): ++ | PAMPA-BBB log Pe (cm s−1) (in vitro; PAMPA, 4 h, pH 7.4): −5.00 cm s−1 | Log P [2, 5]: 4.9

O=C(O)c1cc(O)c(O)c(Oc2c(O)c(=O)c3oc(O)c4cc(O)c(=O)c5oc(O)c2c3c45)c1 [Sanguisorbic acid dilactone]
Cross BBB potential (in vitro; [11]): - | Log P [2, 9]: −0.4 | Log P ([2]; compounds of ASFE extract): −0.4

COc1cc(/C=C/C=O)cc(OC)c1O [Sinapaldehyde]
Cross BBB potential (in vitro; compound within ASFE extract): - | Log P [2, 9]: 1.4 | Log P ([2]; compounds of ASFE extract): 1.4

COc1cc(/C=C/C(=O)O)cc(OC)c1O [Sinapic acid]
Cross BBB potential (in vitro; compound within ASFE extract): - | Cross BBB potential (in vitro; compound within KD extract): - | Cross BBB potential (in vitro; compound within T33 extract): - | Log P [2, 9]: 1.5 | Log P ([2]; compounds of ASFE extract): 1.5 | Log P ([2]; compounds of KD extract): 1.5 | Log P ([2]; compounds of T33 extract): 1.5

CC(C)c1cc2c(cc1O)[C@@]1(C)CCCC(C)(C)[C@@H]1CC2=O [Sugiol]
Cross BBB potential (in vitro; PAMPA): ++ | Papp at 4 h (in vitro; [3]): 4.57 ×10⁻⁶ cm/s | Log P [2, 5]: 5.6

COc1cc(C=O)cc(OC)c1O [Syringaldehyde]
Papp (in vitro; [8]): 13.5 ×10⁻⁶ cm/s | Log P [2, 9]: 0.1 | Log P ([2]; compounds of T33 extract): 1.1

COc1cc(C(=O)O)cc(OC)c1O [Syringic acid]
Papp at 4 h (in vitro; [8]): 0.145 ×10⁻⁶ cm/s | Cross BBB potential (in vitro; compound within RSFE extract): - | Log P [2, 9]: 1.0 | Log P ([2]; compounds of ASFE extract): 1.0 | Log P ([2]; compounds of KD extract): 1.0 | Log P [2, 5]: 1.0

Oc1ccc(/C=C/c2cc(O)cc(O)c2)cc1 [Trans-resveratrol]
Cross BBB potential (in vitro; PAMPA): - | Log P [2, 9]: 2.5 | Log P ([2]; compounds of ASFE extract): 2.5

CCC(O)C1CC(C)C2(CC(=O)C3(C)C4=C(CCC32C)C2(C)CCC(=O)C(C)(CO)C2CC4)O1 [Triterpene*, (23S,24S)-17,23-Epoxy-24,29-dihydroxy-27-norlanost-8-ene-3,15-dione]
Cross BBB potential (in vitro; PAMPA): ++ | PAMPA-BBB log Pe (cm s−1) (in vitro; PAMPA, 4 h, pH 7.4): −4.97 cm s−1 | PAMPA-BBB log Pe (in vitro; compound within LPLE (Nothofagus pumilio, lenga PLE extract), N.D = not detected in acceptor): −5.05 cm s−1 | Log P [2, 9]: 3.6 | Log P ([2]; compounds of ASFE extract): 3.6

COc1cc(C(=O)O)ccc1O [Vanillic acid]
Papp at 4 h (in vitro; [6]): 2.14 ×10⁻⁶ cm/s | Papp at 4 h (in vitro; [7]): 55 ×10⁻⁶ cm/s | Papp at 4 h (in vitro; [8]): 1.35 ×10⁻⁶ cm/s | Cross BBB potential (in vitro; compound within ASFE extract): + (log Pe > −6.5) | Cross BBB potential (in vitro; compound within KD extract): +++ (log Pe > −4.5) | Cross BBB potential (in vitro; [11]): + (log Pe > −6.5) | Log P [2, 9]: 1.4 | Log P ([2]; compounds of ASFE extract): 1.4 | Log P ([2]; compounds of KD extract): 1.4

COc1ccc2c3c1O[C@H]1C[C@@H](O)C=C[C@@]31CCN(C)C2 [galantamine, reference compound]
logPe (cm s^−1) ([1]; therapeutic drug for comparison, ref [70]): –5.35 ± 0.02 cm s^−1

O=C(O)c1ccc(O)cc1 [p-salycilic acid]
Cross BBB potential (in vitro; compound within RSFE extract): +++ (log Pe > −4.5) | PAMPA-BBB log Pe (cm s−1) (in vitro; [12]): −4.18 cm s−1 | Cross BBB potential (in vitro; compound within T33 extract): ++ (log Pe > −5.5) | PAMPA-BBB log Pe (cm s−1) (in vitro; compound within T33 extract, 4 h, 37°C, PBS pH 7.4): −4.75 cm s−1 | Log P [2, 5]: 1.6

Oc1ccc(/C=C/c2cc(O)cc3c2[C@@H](c2cc(O)cc(O)c2)[C@H](c2ccc(O)cc2)O3)cc1 [ε-Viniferin]
Cross BBB potential (in vitro; compound within ASFE extract): - | Cross BBB potential (in vitro; [11]): - | Log P [2, 9]: 5.4 | Log P ([2]; compounds of ASFE extract): 5.4

Bersaldegenin-1,3,5-orthoacetate
Cross BBB potential (in vitro; compound within KD extract): - | Log P ([2]; compounds of KD extract): 4.87

Caffeoylshikimic acid
Cross BBB potential (in vitro; PAMPA): ++ | PAMPA-BBB log Pe (cm s−1) (in vitro; PAMPA, 4 h, pH 7.4): −5.46 cm s−1 | Log P ([2]; compounds of T33 extract): 0.9

Desdimethyl-octahydro-iso- cohumulone
Cross BBB potential (in vitro; compound within RSFE extract): +++ (log Pe > −4.5) | PAMPA-BBB log Pe (cm s−1) (in vitro; [12]): −4.30 cm s−1 | Log P [2, 5]: 3.8

Kalandaigremoside B
Cross BBB potential (in vitro; compound within KD extract): - | Log P ([2]; compounds of KD extract): 7.2

Kalandaigremoside C
Cross BBB potential (in vitro; compound within KD extract): - | Log P ([2]; compounds of KD extract): 7.2

Kalandaigremoside F
Cross BBB potential (in vitro; compound within KD extract): - | Log P ([2]; compounds of KD extract): 7.2

Methydihydrojasmonic acid
Cross BBB potential (in vitro; PAMPA): +++ | PAMPA-BBB log Pe (cm s−1) (in vitro; PAMPA, 4 h, pH 7.4): −3.96 cm s−1 | Log P [2, 5]: 1.6

Notohamosine B
Cross BBB potential (in vitro; PAMPA): ++ | PAMPA-BBB log Pe (cm s−1) (in vitro; PAMPA, 4 h, pH 7.4): −4.62 cm s−1 | Log P [2, 5]: 5.6

Resibufagin
Cross BBB potential (in vitro; compound within KD extract): - | Log P ([2]; compounds of KD extract): 2.4
